Source: patent publication US10751418B2, “Orally bioavailable lipid-based constructs” (SDG, Inc., priority 2007, dated 2020)
No end group written: not given here.

Key:
Type in all cases: in vivo
[1] = test system: insulin deficient rats (alloxan and streptozotocin); assay: Liver glycogen after oral GLP-1 in alloxan/streptozotocin treated rats; settings: Dose GLP-1 0.01 mg/rat, 2 hours post dosing
Protocol: Rats were fasted overnight. Subsequently, 800 mg each of alloxan and streptozotocin were dissolved in 40 mL of PBS (pH 7, 0.01M). The fasted rats were then treated immediately with a 0.5 mL IP dose to induce insulin deficiency. The animals were then stabilized overnight with water and food. Following stabilization, the rats were fasted overnight to deplete liver glycogen.
Subsequently, the rats were administered 1.5 g glucose/kg body weight and GLP-1 in the form of a GLP-1 associated with a composition comprising approximately 62 mole percent 1,2 distearoyl-sn-glycero-3-phosphocholine, approximately 22 mole percent dihexadecyl phosphate, and approximately 16 mole percent cholesterol (“associated GLP-1”). In separate experiments, the amount of associated GLP-1 was varied. Liver glycogen was measured chemically at 2 hours post dosing.
As a control, unassociated GLP-1 was gavaged in place of associated GLP-1. In a separate control, GLP-1, in a dose similar to that orally gavaged, was injected intraperitoneally.

[2] = test system: mice made diabetic by streptozotocin and alloxan; assay: Blood glucose after oral dosing via drinking water in alloxan-streptozotocin treated mice; settings: day seven, 0.1 U/ml in drinking water, tail-vein blood
Description: Mice used in the present experiment were made diabetic by administering streptozotocin and alloxan. The diabetic animals were then divided into two groups. The control group (11 mice) was orally dosed with regular insulin. The experimental group (7 mice) was orally dosed with a composition comprising insulin and approximately 61 mole percent 1,2 distearoyl-sn-glycero-3-phosphocholine, approximately 22 mole percent dihexadecyl phosphate, approximately 16 mole percent cholesterol, and approximately 1 mole percent poly[Cr-bis(N-2,6-diisopropylphenylcarbamoylmethyl iminodiacetic acid)] (wherein a known portion of the phospholipid component comprised ^14C labeled phospholipid). Dosing was accomplished utilizing the water bottle dosing method described in Experiment 2.
After being made diabetic, […] in both groups were treated identically over a 7 day period and fed with plain food and plain water. Following this 7 day period, rats in the control group were treated for an additional 7 day experimental period with food and regular insulin in the available drinking water at 0.1 U/ml. Over the same 7 day experimental period, the experimental group was fed regular food with the composition of the invention available in the drinking water at 0.1 U/ml. At the end of each 7-day period, blood glucose was measured in a tail-vein sample of blood by a Beckman Blood Glucose Analyzer.

[3] = test system: normal, fasted rats; assay: Blood calcium levels after calcitonin administration; settings: subcutaneous injection, control rats
Protocol: Normal, fasted, control rats were given a dose of salmon calcitonin via subcutaneous injection such that an initial 10% reduction in blood calcium was observed. Blood calcium levels were then measured for six hours post injection. An experimental group of rats was given the same effective dose of calcitonin by oral gavage, in the form of a composition comprising calcitonin and approximately 62 mole percent 1,2 distearoyl-sn-glycero-3-phosphocholine, approximately 22 mole percent dihexadecyl phosphate, and approximately 16 mole percent cholesterol. Blood calcium levels were followed for six hours (FIG. 8). […] This difference was statistically significant (FIG. 8).

GLP-1: unassociated GLP-1 peptide, gavaged or injected intraperitoneally as control (HAEGTFTSDVSSYLEGQAAKEFIAWLVKGR; ends and bridges not checked; UniProt P01275 98-127, looked up)
Liver Glycogen ([1]; intraperitoneal): 59 ± 44 mg/g liver | Liver Glycogen ([1]; oral gavage): 40 ± 22 mg/g liver

regular insulin: regular insulin orally dosed to the control group in drinking water
blood glucose [2]: not altered at all

salmon calcitonin
initial reduction in blood calcium [3]: 10%
